Test results published in US10351530B2, “Arylcyclohexyl pyrazoles as NRF2 regulators” (GlaxoSmithKline Intellectual Property Development Limited, priority 2015, dated 2019).
pIC50: −log10 of the molar value.

Tests used:
NRF2/Keap1 [1] = target: T1, NRF2/Keap1 (Homo sapiens, UniProt Q14145); experiment: NRF2-Keap1 TR-FRET Assay (full length NRF2 and full length Keap1); type: binding; conditions: 25 nM Keap1-FlagHis, 50 nM biotin-NRF2 added
T1 construct: full length NRF2 protein and full length Keap1 protein (Keap1 exists a dimer) are used
T1 sequence (Q14145 whole entry): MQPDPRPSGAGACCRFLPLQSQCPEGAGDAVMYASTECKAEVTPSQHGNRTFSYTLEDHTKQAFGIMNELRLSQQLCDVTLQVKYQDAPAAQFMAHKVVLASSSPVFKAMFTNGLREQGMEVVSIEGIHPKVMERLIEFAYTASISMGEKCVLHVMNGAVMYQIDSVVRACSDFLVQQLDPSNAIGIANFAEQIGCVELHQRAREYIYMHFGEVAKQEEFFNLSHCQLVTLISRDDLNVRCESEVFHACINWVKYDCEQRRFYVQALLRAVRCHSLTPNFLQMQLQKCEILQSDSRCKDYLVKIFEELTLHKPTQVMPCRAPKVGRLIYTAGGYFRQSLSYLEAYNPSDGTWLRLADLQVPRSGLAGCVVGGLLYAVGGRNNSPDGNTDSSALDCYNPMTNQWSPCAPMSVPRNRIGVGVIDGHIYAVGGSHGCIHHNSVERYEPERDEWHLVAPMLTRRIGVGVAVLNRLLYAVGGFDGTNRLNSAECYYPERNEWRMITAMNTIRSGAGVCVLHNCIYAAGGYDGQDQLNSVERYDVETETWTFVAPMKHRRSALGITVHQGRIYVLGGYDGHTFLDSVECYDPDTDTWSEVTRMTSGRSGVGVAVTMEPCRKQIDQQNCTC
Text: In the NRF2-Keap1 TR-FRET (time-resolved fluorescence resonance energy transfer) assay, full length NRF2 protein and full length Keap1 protein (Keap1 exists a dimer) are used. The assay detects the ability of compound to displace the binding of FlagHis-tagged Keap1 with biotinylated, Avi-tagged NRF2 protein. Biotin-NRF2 binds to streptavidin-europium (a component of the detection mix) and Keap1-FlagHis is recognized by anti-Flag APC (allophycocyanin) antibody (also a component of the detection mix). If binding occurs between the two proteins, there will be an energy transfer from the Eu+3 (donor) at 615 nm to the APC (acceptor) at 665 nm. A potential Keap1 inhibitor will cause a reduction in the TR-FRET signal by interfering with the binding of Keap1 to NRF2.
One hundred nanoliters of 100× compound dose response curves (serial 3-fold dilutions) in DMSO are stamped using an Echo liquid handling system (Labcyte) into 384-well, low volume, black assay plates (Greiner, #784076), with DMSO in columns 6 and 18. The top concentration of compound is located in columns 1 and 13. All reagents are diluted in assay buffer (50 mM Tris, pH 8.0, 5 mM MgCl2, 100 mM NaCl, 0.005% BSA, 1 mM DTT, and 2 mM CHAPS). The BSA, DTT, and CHAPS are added to the assay buffer on the day of assay. Using a Multidrop Combi (Thermo Electron Corporation) equipped with a metal tip dispenser, 5 ul of 25 nM Keap1-FlagHis protein is added to all wells of the compound plate, with the exception of the wells in column 18. Wells in column 18 receive 5 ul of assay buffer instead. Plates are centrifuged at 500 rpm for 1 minute, covered with a plate lid, and incubated at 37° C. for 2.25 hours. Plates are then removed from the incubator and allowed to cool to RT for 15 minutes. Five microliters of 50 nM biotin-NRF2 protein is then added to all wells of the plates and the plates are spun at 500 rpm for 1 minute, followed by incubating at 4° C. for 1.25 hours. The plates are then allowed to warm to RT for 15 minutes, followed by the addition of 10 ul of detection mix (1 nM Streptavidin Eu+ W1024 and 5 ug/ml mouse anti-DYKDDDDK IgG conjugated to SureLight APC antibody; both from Columbia Biosciences) to all wells. Plates are spun at 500 rpm for 1 minute, incubated for 1 hour at RT, and read on an Envision plate reader using a 320 nm excitation filter and 615 nm and 665 nm emission filters. Compound response (% inhibition) and potency (pIC50) are calculated based on the ratio of the two emissions (665 nm/615 nm) and then the transformed data is normalized against controls in the assay (control 1=1% DMSO in the presence of NRF2 and Keap1 protein and control 2=1% DMSO in the absence of protein). Data analysis is handled using the software package Abase XE (Surrey, United Kingdom). The % inhibition values are calculated from the ratio (transformed) data by the equation: 100−(100*(compound response-average control 2)/(average control 1−average control 2)).
For calculation of pIC50s, Abase XE uses a four parameter equation.

NRF2/Keap1 [2] = target: T1, NRF2/Keap1; experiment: NRF2-Keap1 TR-FRET Low Protein Assay (full length NRF2 and full length Keap1); type: binding; conditions: low protein: 1.25 nM Keap1 FlagHis, 2.5 nM biotin-NRF2 added
Text: In the NRF2-Keap1 TR-FRET (time-resolved fluorescence resonance energy transfer) low protein assay, full length NRF2 protein and full length Keap1 protein (Keap1 exists a dimer) are used. The assay detects a compound's ability to displace the binding of Keap1 FlagHis with biotinylated Avi-NRF2 protein. Biotin-NRF2 binds to streptavidin-europium (a component of the detection mix) and Keap1 FlagHis is recognized by anti-Flag APC (allophycocyanin) antibody (also a component of the detection mix). If binding occurs between the two proteins, there will be an energy transfer from the Eu+3 (donor) at 615 nm to the APC (acceptor) at 665 nm. A potential NRF2 inhibitor will cause a reduction in the TR-FRET signal by interfering with the binding of Keap1 to NRF2.
Ten nanoliters of 100× compound dose response curves (serial 3-fold dilutions) in DMSO are stamped using an Echo liquid handling system (Labcyte) into 384-well, low volume, black assay plates (Greiner, #784076), with DMSO in columns 6 and 18. An additional 90 nl DMSO is added to each well, to bring the total volume to 100 nl per well. The top concentration of compound is located in columns 1 and 13, with the serial dilutions going across the row. All reagents are diluted in assay buffer (50 mM Tris, pH 8.0, 5 mM MgCl2, 100 mM NaCl, 0.005% BSA, 1 mM DTT, and 2 mM CHAPS. The BSA, DTT, and CHAPS are added to the assay buffer on the day of assay. Using a Multidrop Combi (Thermo Electron Corporation) equipped with a metal tip dispenser, 5 ul of 1.25 nM Keap1 FlagHis protein is added to all wells of the compound plate, with the exception of the wells in column 18. Wells in column 18 receive 5 ul of assay buffer instead. Plates are centrifuged at 500 rpm for 1 minute, covered with a plate lid, and incubated at 37° C. for 2.25 hours. Plates are then removed from the incubator and allowed to cool to RT for 15 minutes. Five microliters of 2.5 nM biotin-NRF2 protein is then added to all wells of the plates and the plates are spun at 500 rpm for 1 minute, followed by incubating at 4° C. for 1.25 hours. The plates are then allowed to warm to RT for 15 minutes, followed by the addition of 10 ul of detection mix (1 nM Streptavidin Eu+ W1024 and 5 ug/ml mouse anti-DYKDDDDK IgG conjugated to SureLight APC antibody; both from Columbia Biosciences) to all wells. Plates are spun at 500 rpm for 1 minute, incubated for 1 hour at RT, and read on an Envision plate reader using a 320 nm excitation filter and 615 nm and 665 nm emission filters. Compound response (% inhibition) and potency (pIC50) are calculated based on the ratio of the two emissions (665 nm/615 nm) and then the transformed data is normalized against controls in the assay (control 1=1% DMSO in the presence of NRF2 and Keap1 protein and control 2=1% DMSO in the presence of only the NRF2 protein). Data analysis is handled using the software package Abase XE (Surrey, United Kingdom). The % inhibition values are calculated from the ratio (transformed) data by the equation: 100−(100*(compound response-average control 2)/(average control 1−average control 2)). For calculation of pIC50s, Abase XE uses a four parameter equation.

Row | SMILES | pIC50 (NRF2/Keap1 [1]) | pIC50 (NRF2/Keap1 [2])
1 | CCCCC1CCCN1C(=O)C1CCCC(c2cccc(-n3ncc(C(=O)O)c3C3CC3)c2)C1 (racemic) [Example 8c, 1-{3-[3-(2-Butylpyrrolidine-1-carbonyl)cyclohexyl]phenyl}-5-cyclopropyl-1H-pyrazole-4-carboxylic Acid] | 6.00 to 7.00 | 7.00 to 8.00
2 | CC(C)CCC1CCCN1C(=O)C1CCCC(c2cccc(-n3ncc(C(=O)O)c3C3CC3)c2)C1 (racemic) [Example 11, 5-Cyclopropyl-1-(3-{3-[2-(3-methylbutyl)pyrrolidine-1-carbonyl]cyclohexyl}phenyl)-1H-pyrazole-4-carboxylic Acid] | 6.00 to 7.00 | 7.00 to 8.00
3 | O=C(O)c1cnn(-c2cccc(C3CCCC(C(=O)N4CCCC4C4CC4)C3)c2)c1C1CC1 (racemic) [Example 12, 5-cyclopropyl-1-{3-[3-(2-cyclopropylpyrrolidine-1-carbonyl)cyclohexyl]phenyl}-1H-pyrazole-4-carboxylic Acid] | 6.00 to 7.00 | 7.00 to 8.00
4 | CC1(C)CCc2cnn([C@@H]3CCC[C@@H](c4cccc(-n5ncc(C(=O)O)c5C5CC5)c4)C3)c21 (racemic) [Example 23, 5-Cyclopropyl-1-(3-(t-3-(6,6-dimethyl-5,6-dihydrocyclopenta[c]pyrazol-1(4H)-yl)cyclohexyl)phenyl)-1H-pyrazole-4-carboxylic Acid] | 4.00 to 5.00 | 5.00 to 6.00
5 | CCOC[C@@H]1CCCN1C(=O)C1CCCC(c2cccc(-n3ncc(C(=O)O)c3C3CC3)c2)C1 (single isomer, unassigned) [Example 18g] | 7.00 to 8.00 | > 8.00
6 | CCCC[C@@H]1CCCN1C(=O)[C@H]1CCC[C@@H](c2cccc(-n3ncc(C(=O)O)c3C3CC3)c2)C1 [Example 17f, 1-{3-[(1R,3S)-3-[(2R)-2-Butylpyrrolidine-1-carbonyl]cyclohexyl]phenyl}-5-cyclopropyl-1H-pyrazole-4-carboxylic Acid] | 7.00 to 8.00 | > 8.00
7 | O=C(O)c1cnn(-c2cccc(C3=CC(C(=O)N4CCCCCC4)CCC3)c2)c1C1CC1 (stereo not drawn) [Example 19, 1-(5′-(Azepane-1-carbonyl)-2′,3′,4′,5′-tetrahydro-[1,1′-biphenyl]-3-yl)-5-cyclopropyl-1H-pyrazole-4-carboxylic Acid] | 5.00 to 6.00 | 6.00 to 7.00
8 | CCCCC1CCc2cnn([C@@H]3CCC[C@@H](c4cccc(-n5ncc(C(=O)O)c5C5CC5)c4)C3)c21 (stereo partly drawn) [Example 38, 1-(3-((1,3-trans)-3-(6-Butyl-5,6-dihydrocyclopenta[c]pyrazol-1(4H)-yl)cyclohexyl)phenyl)-5-cyclopropyl-1H-pyrazole-4-carboxylic Acid] | 4.00 to 5.00 | 4.00 to 5.00
9 | Cn1cc(C2CC2c2c(C(=O)O)cnn2-c2cccc([C@@H]3CCC[C@H](n4ncc5c4C(C)(C)CC5)C3)c2)nn1 (stereo partly drawn) [Example 39, 1-(3-((1R,3S)-3-(6,6-Dimethyl-5,6-dihydrocyclopenta[c]pyrazol-1(4H)-yl)cyclohexyl)phenyl)-5-(2-(1-methyl-1H-1,2,3-triazol-4-yl)cyclopropyl)-1H-pyrazole-4-carboxylic Acid] | 7.00 to 8.00 | > 8.00
10 | Cn1cc(C2CC2c2c(C(=O)O)cnn2-c2cccc([C@H]3CCC[C@H](n4ncc5c4C(C)(C)CC5)C3)c2)nn1 (stereo partly drawn) [Example 40, 1-(3-((1,3-trans)-3-(6,6-Dimethyl-5,6-dihydrocyclopenta[c]pyrazol-1(4H)-yl)cyclohexyl)phenyl)-5-(2-(1-methyl-1H-1,2,3-triazol-4-yl)cyclopropyl)-1H-pyrazole-4-carboxylic Acid] | 6.00 to 7.00 | 7.00 to 8.00
11 | CCCCC1CCCC1N(C)C(=O)C1CCCC(c2cccc(-n3ncc(C(=O)O)c3C3CC3)c2)C1 (stereo not drawn) [Example 41, 1-(3-(3-((2-Butylcyclopentyl)(methyl)carbamoyl)cyclohexyl)phenyl)-5-cyclopropyl-1H-pyrazole-4-carboxylic Acid] | 5.00 to 6.00 | 6.00 to 7.00
12 | CCCCC1CCCN1C(=O)C1CCCC(c2cccc(-n3ncc(C(=O)O)c3C3CC3c3cn(C)nn3)c2)C1 (stereo not drawn) [Example 42, 1-(3-(3-(2-Butylpyrrolidine-1-carbonyl)cyclohexyl)phenyl)-5-(2-(1-methyl-1H-1,2,3-triazol-4-yl)cyclopropyl)-1H-pyrazole-4-carboxylic Acid] | 6.00 to 7.00 | > 8.00
